Source: the supplement of paper PMC10307832

What was measured:
Assay in all cases: relative viability (nuclei count vs DMSO), 5 days (fraction); higher = more cells survive
NCI-H460 = tested on: NCI-H460
Method in brief: (§1)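 Dosing by pin tool came one day after lung cancer cell lines were seeded in 1536-well plates, using either one drug or a fixed anchor-drug dose plus five library-drug doses (not always all listed) in √10 steps. After 5 days, nuclei were counted on 4× images. Relative viability is treated-well nuclei count divided by vehicle-well nuclei count, and values are medians of duplicate plates.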

NCI-H1944 = tested on: NCI-H1944
Method in brief: as §1

NCI-H3122 = tested on: NCI-H3122
Method in brief: as §1

NCI-H2170 = tested on: NCI-H2170
Method in brief: as §1

NCI-H1651 = tested on: NCI-H1651
Method in brief: as §1

NCI-H2405 = tested on: NCI-H2405
Method in brief: as §1

LC-2-ad = tested on: LC-2-ad
Method in brief: as §1

RERF-LC-KJ = tested on: RERF-LC-KJ
Method in brief: as §1

HCC-78 = tested on: HCC-78
Method in brief: as §1

ChaGo-K-1 = tested on: ChaGo-K-1
Method in brief: as §1

UMC-11 = tested on: UMC-11
Method in brief: as §1

NCI-H2228 = tested on: NCI-H2228
Method in brief: as §1

LOU-NH91 = tested on: LOU-NH91
Method in brief: as §1

PC-3 [JPC-3] = tested on: PC-3 [JPC-3]
Method in brief: as §1

CAL-12T = tested on: CAL-12T
Method in brief: as §1

NCI-H2087 = tested on: NCI-H2087
Method in brief: as §1

NCI-H1755 = tested on: NCI-H1755
Method in brief: as §1

LU99A = tested on: LU99A
Method in brief: as §1

ABC-1 = tested on: ABC-1
Method in brief: as §1

HCC-366 = tested on: HCC-366
Method in brief: as §1

Question: For `COc1cc2nccc(Oc3ccc(NC(=O)Nc4cc(C)on4)c(Cl)c3)c2cc1OC` [Tivozanib] + C[C@@H](Oc1cc(-c2cnn(C3CCNCC3)c2)cnc1N)c1c(Cl)ccc(F)c1Cl [Crizotinib] (partner 1 µM), which relative viability (NCI-H460; first compound 0.005 µM) is on record?
Answer: 0.889

Question: What about the relative viability (NCI-H460; first compound 0.01581 µM) of the same compound?
Answer: 1.09

Question: And the relative viability (NCI-H460; first compound 0.05 µM)?
Answer: 0.96

Question: And the relative viability (NCI-H460; first compound 0.1581 µM)?
Answer: 0.935

Question: And the relative viability (NCI-H460; first compound 0.5 µM)?
Answer: 0.897

Question: What about the relative viability (NCI-H1944; first compound 0.005 µM) of the same compound?
Answer: 1.13

Question: And the relative viability (NCI-H1944; first compound 0.01581 µM)?
Answer: 1.05

Question: And the relative viability (NCI-H1944; first compound 0.05 µM)?
Answer: 1.1

Question: What about the relative viability (NCI-H1944; first compound 0.1581 µM) of the same compound?
Answer: 1.02

Question: What about the relative viability (NCI-H1944; first compound 0.5 µM) of the same compound?
Answer: 1.28

Question: What about the relative viability (NCI-H3122; first compound 0.005 µM) of the same compound?
Answer: 0.236

Question: And the relative viability (NCI-H3122; first compound 0.01581 µM)?
Answer: 0.266

Question: And the relative viability (NCI-H3122; first compound 0.05 µM)?
Answer: 0.266

Question: What about the relative viability (NCI-H3122; first compound 0.1581 µM) of the same compound?
Answer: 0.29

Question: And the relative viability (NCI-H3122; first compound 0.5 µM)?
Answer: 0.32

Question: What about the relative viability (NCI-H2170; first compound 0.005 µM) of the same compound?
Answer: 1.11

Question: What about the relative viability (NCI-H2170; first compound 0.01581 µM) of the same compound?
Answer: 1.21

Question: And the relative viability (NCI-H2170; first compound 0.05 µM)?
Answer: 1.24

Question: And the relative viability (NCI-H2170; first compound 0.5 µM)?
Answer: 1.17

Question: What about the relative viability (NCI-H1651; first compound 0.005 µM) of the same compound?
Answer: 0.896

Question: What about the relative viability (NCI-H1651; first compound 0.01581 µM) of the same compound?
Answer: 0.91

Question: What about the relative viability (NCI-H1651; first compound 0.05 µM) of the same compound?
Answer: 0.796

Question: And the relative viability (NCI-H1651; first compound 0.1581 µM)?
Answer: 0.84

Question: What about the relative viability (NCI-H1651; first compound 0.5 µM) of the same compound?
Answer: 0.92

Question: What about the relative viability (NCI-H2405; first compound 0.005 µM) of the same compound?
Answer: 0.859

Question: And the relative viability (NCI-H2405; first compound 0.01581 µM)?
Answer: 0.846

Question: And the relative viability (NCI-H2405; first compound 0.05 µM)?
Answer: 0.933

Question: And the relative viability (NCI-H2405; first compound 0.1581 µM)?
Answer: 0.903

Question: What about the relative viability (NCI-H2405; first compound 0.5 µM) of the same compound?
Answer: 0.803

Question: And the relative viability (LC-2-ad; first compound 0.005 µM)?
Answer: 0.413

Question: What about the relative viability (LC-2-ad; first compound 0.01581 µM) of the same compound?
Answer: 0.426

Question: And the relative viability (LC-2-ad; first compound 0.05 µM)?
Answer: 0.522

Question: And the relative viability (LC-2-ad; first compound 0.1581 µM)?
Answer: 0.468

Question: And the relative viability (LC-2-ad; first compound 0.5 µM)?
Answer: 0.347

Question: And the relative viability (RERF-LC-KJ; first compound 0.005 µM)?
Answer: 0.771

Question: And the relative viability (RERF-LC-KJ; first compound 0.01581 µM)?
Answer: 0.81

Question: What about the relative viability (RERF-LC-KJ; first compound 0.05 µM) of the same compound?
Answer: 0.863

Question: And the relative viability (RERF-LC-KJ; first compound 0.1581 µM)?
Answer: 0.85

Question: What about the relative viability (RERF-LC-KJ; first compound 0.5 µM) of the same compound?
Answer: 0.747

Question: What about the relative viability (HCC-78; first compound 0.005 µM) of the same compound?
Answer: 0.352

Question: And the relative viability (HCC-78; first compound 0.01581 µM)?
Answer: 0.365

Question: And the relative viability (HCC-78; first compound 0.05 µM)?
Answer: 0.313

Question: What about the relative viability (HCC-78; first compound 0.1581 µM) of the same compound?
Answer: 0.364

Question: And the relative viability (HCC-78; first compound 0.5 µM)?
Answer: 0.351

Question: And the relative viability (ChaGo-K-1; first compound 0.005 µM)?
Answer: 1.05

Question: And the relative viability (ChaGo-K-1; first compound 0.01581 µM)?
Answer: 1.17

Question: What about the relative viability (ChaGo-K-1; first compound 0.05 µM) of the same compound?
Answer: 1.19

Question: And the relative viability (ChaGo-K-1; first compound 0.1581 µM)?
Answer: 1.17

Question: What about the relative viability (ChaGo-K-1; first compound 0.5 µM) of the same compound?
Answer: 0.849

Question: And the relative viability (UMC-11; first compound 0.005 µM)?
Answer: 0.656

Question: What about the relative viability (UMC-11; first compound 0.01581 µM) of the same compound?
Answer: 0.603

Question: And the relative viability (UMC-11; first compound 0.05 µM)?
Answer: 0.649

Question: What about the relative viability (UMC-11; first compound 0.5 µM) of the same compound?
Answer: 0.536

Question: What about the relative viability (NCI-H2228; first compound 0.005 µM) of the same compound?
Answer: 0.439

Question: What about the relative viability (NCI-H2228; first compound 0.01581 µM) of the same compound?
Answer: 0.421

Question: What about the relative viability (NCI-H2228; first compound 0.05 µM) of the same compound?
Answer: 0.491

Question: What about the relative viability (NCI-H2228; first compound 0.1581 µM) of the same compound?
Answer: 0.453

Question: And the relative viability (NCI-H2228; first compound 0.5 µM)?
Answer: 0.605

Question: And the relative viability (LOU-NH91; first compound 0.005 µM)?
Answer: 0.723

Question: And the relative viability (LOU-NH91; first compound 0.01581 µM)?
Answer: 0.737

Question: What about the relative viability (LOU-NH91; first compound 0.05 µM) of the same compound?
Answer: 0.77

Question: What about the relative viability (LOU-NH91; first compound 0.1581 µM) of the same compound?
Answer: 0.774

Question: And the relative viability (LOU-NH91; first compound 0.5 µM)?
Answer: 0.708

Question: What about the relative viability (PC-3 [JPC-3]; first compound 0.005 µM) of the same compound?
Answer: 0.912

Question: What about the relative viability (PC-3 [JPC-3]; first compound 0.01581 µM) of the same compound?
Answer: 0.997

Question: What about the relative viability (PC-3 [JPC-3]; first compound 0.05 µM) of the same compound?
Answer: 0.991

Question: What about the relative viability (PC-3 [JPC-3]; first compound 0.1581 µM) of the same compound?
Answer: 1.02

Question: What about the relative viability (PC-3 [JPC-3]; first compound 0.5 µM) of the same compound?
Answer: 1.02

Question: And the relative viability (CAL-12T; first compound 0.005 µM)?
Answer: 0.649

Question: And the relative viability (CAL-12T; first compound 0.01581 µM)?
Answer: 0.552

Question: And the relative viability (CAL-12T; first compound 0.05 µM)?
Answer: 0.568

Question: And the relative viability (CAL-12T; first compound 0.5 µM)?
Answer: 0.614

Question: And the relative viability (NCI-H2087; first compound 0.005 µM)?
Answer: 0.797

Question: What about the relative viability (NCI-H2087; first compound 0.01581 µM) of the same compound?
Answer: 0.862

Question: What about the relative viability (NCI-H2087; first compound 0.05 µM) of the same compound?
Answer: 0.882

Question: And the relative viability (NCI-H2087; first compound 0.1581 µM)?
Answer: 0.917

Question: And the relative viability (NCI-H2087; first compound 0.5 µM)?
Answer: 0.668

Question: And the relative viability (NCI-H1755; first compound 0.005 µM)?
Answer: 0.832

Question: What about the relative viability (NCI-H1755; first compound 0.01581 µM) of the same compound?
Answer: 0.845

Question: And the relative viability (NCI-H1755; first compound 0.05 µM)?
Answer: 0.937

Question: And the relative viability (NCI-H1755; first compound 0.1581 µM)?
Answer: 0.872

Question: What about the relative viability (NCI-H1755; first compound 0.5 µM) of the same compound?
Answer: 0.775

Question: And the relative viability (LU99A; first compound 0.005 µM)?
Answer: 0.549

Question: And the relative viability (LU99A; first compound 0.01581 µM)?
Answer: 0.537

Question: And the relative viability (LU99A; first compound 0.05 µM)?
Answer: 0.555

Question: What about the relative viability (LU99A; first compound 0.5 µM) of the same compound?
Answer: 0.482

Question: And the relative viability (ABC-1; first compound 0.005 µM)?
Answer: 1.09

Question: What about the relative viability (ABC-1; first compound 0.01581 µM) of the same compound?
Answer: 1.12

Question: What about the relative viability (ABC-1; first compound 0.05 µM) of the same compound?
Answer: 1.09

Question: What about the relative viability (ABC-1; first compound 0.1581 µM) of the same compound?
Answer: 1.08

Question: What about the relative viability (ABC-1; first compound 0.5 µM) of the same compound?
Answer: 0.874

Question: And the relative viability (HCC-366; first compound 0.005 µM)?
Answer: 0.515

Question: What about the relative viability (HCC-366; first compound 0.01581 µM) of the same compound?
Answer: 0.59

Question: What about the relative viability (HCC-366; first compound 0.05 µM) of the same compound?
Answer: 0.502

Question: And the relative viability (HCC-366; first compound 0.1581 µM)?
Answer: 0.487

Question: And the relative viability (HCC-366; first compound 0.5 µM)?
Answer: 0.372
